Patent publication US20240190831A1, “TRANSTHYRETIN STABILIZING COMPOUNDS” (Protego Biopharma, Inc., priority 2021, published 2024)

Test: In vitro rat liver S9 stability assay (formation of tafamidis)
Format: in vitro ADME
Details: rat liver S9, 1 μM test compound, 37° C.
Method: A stability assay in liver S9 (rat or human) was used to evaluate the ability of a compound provided herein to convert to an active TTR stabilizer. The test compound was added to liver S9 and incubated at 37° C. in a water bath at a concentration of 1 μM. At each time point (0, 5, 10, 20, 30 and 60 min), stop solution (tolbutamide plus labetalol) was added to precipitate protein and mixed thoroughly. After centrifugation, an aliquot of supernatant was analyzed by LC-MS/MS. The percentage of formation of active agent was calculated at each time point.

Row | Formation of tafamidis at 60 min | SMILES
1 | A (A is <25%) | CN1CCC(NC(=O)c2ccc3nc(-c4cc(Cl)cc(Cl)c4)oc3c2)C1 (centres unmarked) [Compound 21, 2-(3,5-dichlorophenyl)-N-(1-methylpyrrolidin-3-yl)benzo[d]oxazole-6-carboxamide]
2 | A (A is <25%) | O=C(NC1CCN(CCF)C1)c1ccc2nc(-c3cc(Cl)cc(Cl)c3)oc2c1 (centres unmarked) [Compound 22, 2-(3,5-dichlorophenyl)-N-(1-(2-fluoroethyl)pyrrolidin-3-yl)benzo[d]oxazole-6-carboxamide]
3 | A (A is <25%) | O=C(NC1CCN(CC(F)F)C1)c1ccc2nc(-c3cc(Cl)cc(Cl)c3)oc2c1 (centres unmarked) [Compound 23, 2-(3,5-dichlorophenyl)-N-(1-(2,2-difluoroethyl)pyrrolidin-3-yl)benzo[d]oxazole-6-carboxamide]
4 | A (A is <25%) | O=C(NC1CCN(CC(F)(F)F)C1)c1ccc2nc(-c3cc(Cl)cc(Cl)c3)oc2c1 (centres unmarked) [Compound 24, 2-(3,5-dichlorophenyl)-N-(1-(2,2,2-trifluoroethyl)pyrrolidin-3-yl)benzo[d]oxazole-6-carboxamide]
5 | A (A is <25%) | O=C(N[C@H]1C[C@H](O)C1)c1ccc2nc(-c3cc(Cl)cc(Cl)c3)oc2c1 [Compound 26, 2-(3,5-dichlorophenyl)-N-((trans)-3-hydroxycyclobutyl)-benzo[d]oxazole-6-carboxamide]
6 | A (A is <25%) | O=C(N[C@H]1C[C@@H](O)C1)c1ccc2nc(-c3cc(Cl)cc(Cl)c3)oc2c1 [Compound 27, 2-(3,5-dichlorophenyl)-N-((Cis)-3-hydroxycyclobutyl)benzo-[d]oxazole-6-carboxamide]
7 | D (D is ≥75%) | O=C(OCCc1ccn[nH]1)c1ccc2nc(-c3cc(Cl)cc(Cl)c3)oc2c1 [Compound 36, 2-(1H-pyrazol-5-yl) ethyl 2-(3,5-dichlorophenyl)benzo[d]oxazole-6-carboxylate]
8 | A (A is <25%) | CCC(Cc1ncc[nH]1)OC(=O)c1ccc2nc(-c3cc(Cl)cc(Cl)c3)oc2c1 (centres unmarked) [Compound 37, 1-(1H-imidazol-2-yl) butan-2-yl 2-(3,5-dichlorophenyl)benzo-[d]oxazole-6-carboxylate]
9 | B (B is ≥25 to <50%) | CC(Cc1ccn[nH]1)OC(=O)c1ccc2nc(-c3cc(Cl)cc(Cl)c3)oc2c1 (centres unmarked) [Compound 38, 1-(1H-pyrazol-5-yl)propan-2-yl 2-(3,5-dichlorophenyl) benzo[d]oxazole-6-carboxylate]
10 | B (B is ≥25 to <50%) | O=C(OCCCO)c1ccc2nc(-c3cc(Cl)cc(Cl)c3)oc2c1 [Compound 40, 3-hydroxypropyl 2-(3,5-dichlorophenyl)benzo[d]oxazole-6-carboxylate]
11 | C (C is ≥50 to <75%) | CC(CCO)OC(=O)c1ccc2nc(-c3cc(Cl)cc(Cl)c3)oc2c1 (centres unmarked) [Compound 41, 4-hydroxybutan-2-yl 2-(3,5-dichlorophenyl) benzo [d] oxazole-6-carboxylate]
12 | B (B is ≥25 to <50%) | CC1(C)CCC(OC(=O)c2ccc3nc(-c4cc(Cl)cc(Cl)c4)oc3c2)C1 (centres unmarked) [Compound 48, 3,3-dimethylcyclopentyl 2-(3,5-dichlorophenyl)benzo[d]oxazole-6-carboxylate]
13 | B (B is ≥25 to <50%) | O=C(OC1CCN(c2cccnc2)C1)c1ccc2nc(-c3cc(Cl)cc(Cl)c3)oc2c1 (centres unmarked) [Compound 49, 1-(pyridin-3-yl)pyrrolidin-3-yl 2-(3,5-dichlorophenyl)benzo-[d]oxazole-6-carboxylate]
14 | A (A is <25%) | O=C(OC1CCN(c2ccncc2)C1)c1ccc2nc(-c3cc(Cl)cc(Cl)c3)oc2c1 (centres unmarked) [Compound 50, 1-(pyridin-4-yl)pyrrolidin-3-yl 2-(3,5-dichlorophenyl)benzo-[d]oxazole-6-carboxylate]
15 | B (B is ≥25 to <50%) | O=C(OC1CCN(c2ncccn2)C1)c1ccc2nc(-c3cc(Cl)cc(Cl)c3)oc2c1 (centres unmarked) [Compound 51, 1-(pyrimidin-2-yl)pyrrolidin-3-yl 2-(3,5-dichlorophenyl)benzo-[d]oxazole-6-carboxylate]
16 | A (A is <25%) | O=C(OC1CCN(c2cnccn2)C1)c1ccc2nc(-c3cc(Cl)cc(Cl)c3)oc2c1 (centres unmarked) [Compound 52, 1-(pyrazin-2-yl)pyrrolidin-3-yl 2-(3,5-dichlorophenyl)benzo-[d]oxazole-6-carboxylate]
17 | A (A is <25%) | O=C(OC1CCN(c2ccncn2)C1)c1ccc2nc(-c3cc(Cl)cc(Cl)c3)oc2c1 (centres unmarked) [Compound 53, 1-(pyrimidin-4-yl)pyrrolidin-3-yl 2-(3,5-dichlorophenyl)benzo-[d]oxazole-6-carboxylate]
18 | A (A is <25%) | O=C(OC1CCN(c2cccnn2)C1)c1ccc2nc(-c3cc(Cl)cc(Cl)c3)oc2c1 (centres unmarked) [Compound 54, 1-(pyridazin-3-yl)pyrrolidin-3-yl 2-(3,5-dichlorophenyl)benzo-[d]oxazole-6-carboxylate]
19 | B (B is ≥25 to <50%) | O=C(OC1CCN2CCCCC12)c1ccc2nc(-c3cc(Cl)cc(Cl)c3)oc2c1 (centres unmarked) [Compound 55, Octahydroindolizin-1-yl 2-(3,5-dichlorophenyl)benzo[d]oxazole-6-carboxylate]
20 | A (A is <25%) | Cc1ncc2n1CC(OC(=O)c1ccc3nc(-c4cc(Cl)cc(Cl)c4)oc3c1)CC2 (centres unmarked) [Compound 56, 3-methyl-5,6,7,8-tetrahydroimidazo [1,5-a] pyridin-6-yl 2-(3,5-dichlorophenyl) benzo[d]oxazole-6-carboxylate]
21 | A (A is <25%) | CC(C)(N1CCC(OC(=O)c2ccc3nc(-c4cc(Cl)cc(Cl)c4)oc3c2)C1)C(F)(F)F (centres unmarked) [Compound 57, 1-(1,1,1-trifluoro-2-methylpropan-2-yl)pyrrolidin-3-yl 2-(3,5-dichlorophenyl)benzo[d]oxazole-6-carboxylate]
22 | A (A is <25%) | O=C(OC1CCc2nc[nH]c2C1)c1ccc2nc(-c3cc(Cl)cc(Cl)c3)oc2c1 (centres unmarked) [Compound 60, 4,5,6,7-tetrahydro-1H-benzo[d]imidazol-6-yl 2-(3,5-dichlorophenyl) benzo[d]oxazole-6-carboxylate]
23 | A (A is <25%) | O=C(O[C@H]1C[C@@H](O)C1)c1ccc2nc(-c3cc(Cl)cc(Cl)c3)oc2c1 [Compound 63, (cis)-3-hydroxycyclobutyl 2-(3,5-dichlorophenyl) benzo[d]oxazole-6-carboxylate]
24 | B (B is ≥25 to <50%) | O=C(O[C@H]1C[C@H](O)C1)c1ccc2nc(-c3cc(Cl)cc(Cl)c3)oc2c1 [Compound 64, (trans)-3-hydroxycyclobutyl 2-(3,5-dichlorophenyl) benzo[d]oxazole-6-carboxylate]
25 | C (C is ≥50 to <75%) | O=C(OC1CC(=O)N2CCCCC12)c1ccc2nc(-c3cc(Cl)cc(Cl)c3)oc2c1 (centres unmarked) [Compound 65, 3-oxooctahydroindolizin-1-yl 2-(3,5-dichlorophenyl)benzo-[d]oxazole-6-carboxylate]

Row | SMILES | Formation of tafamidis at 60 min
26 | CC(N1CCC(OC(=O)c2ccc3nc(-c4cc(Cl)cc(Cl)c4)oc3c2)C1)C(F)(F)F (centres unmarked) [Compound 45, 1-(1,1,1-trifluoropropan-2-yl)pyrrolidin-3-yl 2-(3,5-dichlorophenyl)benzo[d]oxazole-6-carboxylate] | B (B is ≥25 to <50%)
